Data as given in ChEMBL document CHEMBL5131574, “Discovery of Inhibitors of DNA Methyltransferase 2, an Epitranscriptomic Modulator and Potential Target for Cancer Treatment” (J Med Chem, 2022).

How the values were obtained:
[1] = target: T1, tRNA (cytosine(38)-C(5))-methyltransferase (Homo sapiens, UniProt O14717); assay: Inhibition of full length human N-terminal his6-tagged DNMT2 expressed in Escherichia coli Rosetta2(DE3)pLysS by […] assay
T1 sequence (O14717 whole entry): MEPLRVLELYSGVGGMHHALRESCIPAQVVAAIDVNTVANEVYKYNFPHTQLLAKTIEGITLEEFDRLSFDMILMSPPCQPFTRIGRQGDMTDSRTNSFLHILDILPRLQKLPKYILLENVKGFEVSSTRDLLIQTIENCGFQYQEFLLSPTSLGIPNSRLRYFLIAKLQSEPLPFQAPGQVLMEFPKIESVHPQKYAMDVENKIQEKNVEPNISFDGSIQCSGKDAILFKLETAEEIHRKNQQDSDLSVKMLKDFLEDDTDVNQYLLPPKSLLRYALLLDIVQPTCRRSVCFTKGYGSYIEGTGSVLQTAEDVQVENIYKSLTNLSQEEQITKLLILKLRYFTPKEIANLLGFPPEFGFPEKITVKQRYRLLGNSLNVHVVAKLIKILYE

[2] = target: T2, Histone-lysine N-methyltransferase EHMT2 (Homo sapiens) (UniProt Q96KQ7); assay: Inhibition of recombinant human EHMT2 G9a expressed in Escherichia coli Rosetta2(DE3)pLysS at 100 uM using histone H3 as substrate measured at 120 mins by liquid scintillation counting analysis
T2 sequence (whole entry): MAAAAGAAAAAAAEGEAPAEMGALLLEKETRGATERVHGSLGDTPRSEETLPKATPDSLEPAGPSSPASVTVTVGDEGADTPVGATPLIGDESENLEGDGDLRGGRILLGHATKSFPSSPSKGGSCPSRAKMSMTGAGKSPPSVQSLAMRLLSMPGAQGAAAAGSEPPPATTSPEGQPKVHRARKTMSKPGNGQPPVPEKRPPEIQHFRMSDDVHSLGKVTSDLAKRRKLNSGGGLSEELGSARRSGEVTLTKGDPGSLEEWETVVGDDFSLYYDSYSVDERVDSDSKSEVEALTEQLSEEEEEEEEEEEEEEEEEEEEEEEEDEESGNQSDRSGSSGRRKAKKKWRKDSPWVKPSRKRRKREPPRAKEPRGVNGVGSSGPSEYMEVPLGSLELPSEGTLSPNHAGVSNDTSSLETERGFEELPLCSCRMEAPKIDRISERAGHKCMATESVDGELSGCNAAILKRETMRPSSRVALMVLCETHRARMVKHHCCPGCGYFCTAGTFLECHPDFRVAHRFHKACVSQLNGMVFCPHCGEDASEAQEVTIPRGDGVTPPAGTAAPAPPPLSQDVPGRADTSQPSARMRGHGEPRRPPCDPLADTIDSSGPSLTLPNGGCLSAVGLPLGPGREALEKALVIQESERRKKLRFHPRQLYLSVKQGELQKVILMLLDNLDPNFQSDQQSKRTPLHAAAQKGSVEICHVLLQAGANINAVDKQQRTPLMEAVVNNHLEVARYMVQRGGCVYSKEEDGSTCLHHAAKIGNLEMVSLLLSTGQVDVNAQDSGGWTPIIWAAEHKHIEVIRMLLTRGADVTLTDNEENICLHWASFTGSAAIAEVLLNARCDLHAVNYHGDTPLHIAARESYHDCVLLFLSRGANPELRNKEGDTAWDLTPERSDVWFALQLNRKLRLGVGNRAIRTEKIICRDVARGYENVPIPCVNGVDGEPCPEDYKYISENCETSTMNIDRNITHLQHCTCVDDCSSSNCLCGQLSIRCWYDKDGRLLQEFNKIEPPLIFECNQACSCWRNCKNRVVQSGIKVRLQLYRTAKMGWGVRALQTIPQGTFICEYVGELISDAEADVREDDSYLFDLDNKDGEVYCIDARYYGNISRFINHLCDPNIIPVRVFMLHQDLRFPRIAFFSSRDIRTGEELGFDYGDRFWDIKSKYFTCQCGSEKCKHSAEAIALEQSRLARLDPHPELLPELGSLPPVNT

[3] = target: T3, tRNA (cytosine(38)-C(5))-methyltransferase (Homo sapiens) (UniProt O14717); assay: Inhibition of full length human N-terminal his6-tagged DNMT2 expressed in Escherichia coli Rosetta2(DE3)pLysS at 100 uM by liquid scintillation counting analysis
T3 sequence (whole entry): T1 sequence (O14717 whole entry)

[4] = target: RNA cytosine C(5)-methyltransferase NSUN2 (Homo sapiens) (UniProt Q08J23); assay: Inhibition of full length recombinant human NSUN2 expressed in Escherichia coli Rosetta2(DE3)pLysS at 100 uM measured at 20 mins by liquid scintillation counting analysis
RNA cytosine C(5)-methyltransferase NSUN2 (Homo sapiens), sequence (Q08J23 whole entry): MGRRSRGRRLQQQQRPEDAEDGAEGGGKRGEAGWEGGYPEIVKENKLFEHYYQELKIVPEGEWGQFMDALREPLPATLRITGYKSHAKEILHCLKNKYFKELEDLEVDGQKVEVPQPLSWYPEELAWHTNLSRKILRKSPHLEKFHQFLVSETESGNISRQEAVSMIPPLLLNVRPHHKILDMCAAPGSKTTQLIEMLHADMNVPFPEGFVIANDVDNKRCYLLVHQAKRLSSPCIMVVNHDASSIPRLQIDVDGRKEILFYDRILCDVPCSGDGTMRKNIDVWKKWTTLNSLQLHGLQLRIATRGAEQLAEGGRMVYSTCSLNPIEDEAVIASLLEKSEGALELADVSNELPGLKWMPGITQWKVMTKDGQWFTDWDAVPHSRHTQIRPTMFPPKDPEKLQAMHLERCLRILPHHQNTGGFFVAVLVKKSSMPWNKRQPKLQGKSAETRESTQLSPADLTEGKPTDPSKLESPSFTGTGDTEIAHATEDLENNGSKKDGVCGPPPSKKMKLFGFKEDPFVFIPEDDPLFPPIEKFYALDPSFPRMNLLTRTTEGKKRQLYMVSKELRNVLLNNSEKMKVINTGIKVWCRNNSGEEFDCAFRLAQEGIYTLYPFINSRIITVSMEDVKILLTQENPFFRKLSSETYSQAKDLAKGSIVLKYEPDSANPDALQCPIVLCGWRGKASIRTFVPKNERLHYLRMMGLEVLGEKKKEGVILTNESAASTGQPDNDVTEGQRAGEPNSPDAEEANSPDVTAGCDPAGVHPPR

[5] = target: T1, tRNA (cytosine(38)-C(5))-methyltransferase; assay: Binding affinity to full length human N-terminal his6-tagged DNMT2 expressed in Escherichia coli Rosetta2(DE3)pLysS assessed as dissociation constant at 100 uM by isothermal titration calorimetry assay
[6] = target: DNA (cytosine-5)-methyltransferase 3A (Homo sapiens) (UniProt Q9Y6K1); assay: Inhibition of recombinant human DNMT3A-3L expressed in Escherichia coli Rosetta2(DE3)pLysS at 100 uM using Poly(dI-dC)-Poly(dI-dC) as substrate measured at 150 mins by liquid scintillation counting analysis
DNA (cytosine-5)-methyltransferase 3A (Homo sapiens), sequence (Q9Y6K1 whole entry, looked up): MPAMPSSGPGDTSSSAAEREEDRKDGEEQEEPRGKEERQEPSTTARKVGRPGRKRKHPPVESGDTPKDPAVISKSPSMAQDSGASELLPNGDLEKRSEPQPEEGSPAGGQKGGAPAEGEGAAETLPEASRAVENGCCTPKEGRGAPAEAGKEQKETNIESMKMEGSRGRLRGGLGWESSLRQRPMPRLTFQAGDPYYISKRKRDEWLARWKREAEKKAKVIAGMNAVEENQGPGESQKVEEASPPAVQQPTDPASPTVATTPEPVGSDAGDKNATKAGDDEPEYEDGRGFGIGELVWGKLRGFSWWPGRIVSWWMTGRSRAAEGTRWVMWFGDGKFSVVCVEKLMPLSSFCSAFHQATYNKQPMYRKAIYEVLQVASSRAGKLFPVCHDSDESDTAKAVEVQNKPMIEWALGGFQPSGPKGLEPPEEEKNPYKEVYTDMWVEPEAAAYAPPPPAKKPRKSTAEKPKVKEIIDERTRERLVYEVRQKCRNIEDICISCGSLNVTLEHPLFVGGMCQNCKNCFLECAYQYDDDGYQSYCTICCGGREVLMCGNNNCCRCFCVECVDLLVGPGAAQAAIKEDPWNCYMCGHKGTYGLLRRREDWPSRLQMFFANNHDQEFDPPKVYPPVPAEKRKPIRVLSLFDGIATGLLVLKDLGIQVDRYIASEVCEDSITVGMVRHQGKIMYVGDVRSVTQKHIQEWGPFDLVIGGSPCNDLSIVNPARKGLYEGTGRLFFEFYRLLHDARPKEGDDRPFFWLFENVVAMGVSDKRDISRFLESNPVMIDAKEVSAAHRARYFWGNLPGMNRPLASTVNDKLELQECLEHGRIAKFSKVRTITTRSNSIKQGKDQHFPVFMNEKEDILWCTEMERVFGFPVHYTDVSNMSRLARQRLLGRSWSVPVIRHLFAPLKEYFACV

[7] = target: T4, tRNA (cytosine(72)-C(5))-methyltransferase NSUN6 (Homo sapiens) (UniProt Q8TEA1); assay: Inhibition of full length human NSUN6 expressed in Escherichia coli Rosetta2(DE3)pLysS at 100 uM measured at 20 mins by liquid scintillation counting analysis
T4 sequence (whole entry): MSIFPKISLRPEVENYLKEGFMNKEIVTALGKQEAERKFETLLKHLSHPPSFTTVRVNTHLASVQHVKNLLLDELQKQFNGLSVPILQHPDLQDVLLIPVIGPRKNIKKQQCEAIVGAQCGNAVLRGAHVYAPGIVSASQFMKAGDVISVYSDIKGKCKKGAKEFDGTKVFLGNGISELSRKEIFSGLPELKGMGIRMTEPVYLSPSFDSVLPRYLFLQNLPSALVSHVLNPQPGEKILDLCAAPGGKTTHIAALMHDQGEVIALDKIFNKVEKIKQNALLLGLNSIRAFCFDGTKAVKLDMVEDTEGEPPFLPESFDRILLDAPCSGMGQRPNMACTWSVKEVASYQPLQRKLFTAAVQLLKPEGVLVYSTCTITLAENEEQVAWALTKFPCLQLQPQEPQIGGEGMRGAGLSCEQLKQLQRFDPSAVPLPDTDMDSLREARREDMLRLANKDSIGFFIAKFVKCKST

[8] = target: T3, tRNA (cytosine(38)-C(5))-methyltransferase (Homo sapiens); assay: Binding affinity to full length human N-terminal his6-tagged DNMT2 expressed in Escherichia coli Rosetta2(DE3)pLysS assessed as change in enthalpy change at 100 uM by isothermal titration calorimetry assay
[9] = target: T3, tRNA (cytosine(38)-C(5))-methyltransferase (Homo sapiens); assay: Binding affinity to full length human N-terminal his6-tagged DNMT2 expressed in Escherichia coli Rosetta2(DE3)pLysS assessed as change in entropy at 100 uM by isothermal titration calorimetry assay
[10] = target: T3, tRNA (cytosine(38)-C(5))-methyltransferase (Homo sapiens); assay: Binding affinity to full length human N-terminal his6-tagged DNMT2 expressed in Escherichia coli Rosetta2(DE3)pLysS assessed as gibbs free energy change at 100 uM by isothermal titration calorimetry assay
[11] = Permeability of the compound in human Caco-2 cells assessed as compound remaining by measuring ester form of the donor compartment incubated for 24 hrs by LC/MS analysis; format: ADME, cell-based; settings: read-out: Activity
[12] = Stability of the compound in TRIS buffer at 7.4 pH assessed as hydrolysis of ethyl ester at 100 uM incubated for 24 hrs by LC-MS analysis; format: physicochemical; settings: pH 7.4, read-out: Drug degradation
[13] = Permeability of the compound in human Caco-2 cells assessed as compound remaining by measuring acid form of the donor compartment incubated for 24 hrs by LC/MS analysis; format: ADME, cell-based; settings: caco-2, 24 h
[14] = Permeability of the compound in human Caco-2 cells assessed as compound remaining by measuring ester form of the acceptor compartment incubated for 24 hrs by LC/MS analysis; format: ADME, cell-based; settings: caco-2, 24 h
[15] = Cytotoxicity against human HEK293 cells assessed as cell viability at 100 uM measured after 24 hrs by MTT assay; format: toxicity, cell-based
[16] = target: T3, tRNA (cytosine(38)-C(5))-methyltransferase (Homo sapiens); assay: Inhibition of DNMT2-mediated tRNA methylation in human HEK293 cells assessed as reduction in m5C at C38 of tRNA by measuring m5C level at 100 uM incubated for 24 hrs by bisulfite sequencing analysis; format: cell-based
[17] = Selectivity ratio of Kd for binding affinity to full length human N-terminal his6-tagged DNMT2 expressed in Escherichia coli Rosetta2(DE3)pLysS assessed as dissociation constant to IC50 for inhibition of full length human N-terminal his6-tagged DNMT2 expressed in Escherichia coli Rosetta2(DE3)pLysS

Row | SMILES | IC50 [1] | inhibition [2] | inhibition [3] | inhibition [4] | Kd [5] | inhibition [6] | inhibition [7] | deltaH [8] | -TdeltaS [9] | deltaG [10] | remaining at 24 h [11] | degraded at 24 h, 100 µM [12] | Activity [13] | Activity [14] | CC50 at 24 h [15] | inhibition [16] | Selectivity ratio [17]
1 | Nc1ncnc2c1ncn2[C@@H]1O[C@H](CSCC[C@H](N)C(=O)O)[C@@H](O)[C@H]1O [S-ADENOSYLHOMOCYSTEINE] | 15.8 µM | 94.3% | 85.7% | 97.3% | 13.6 µM | 96.7% | 99.6% | -13.2 kcal/mol | 6.57 kcal/mol | -6.64 kcal/mol | – | – | – | – | – | – | –
2 | C#CC(C)N(CC[C@H](N)C(=O)OCC)C[C@H]1O[C@@H](n2cnc3c(N)ncnc32)[C@H](O)[C@@H]1O (some centres undefined) | – | – | – | – | – | – | – | – | – | – | 20% | 60% | <= 78% | 2% | > 500 µM | – | –
3 | Nc1ncnc2c1ncn2[C@@H]1O[C@H](C[C@@H](N)CC[C@H](N)C(=O)O)[C@@H](O)[C@H]1O [SINEFUNGIN] | 13.2 µM | 43% | 83.5% | 77.1% | 7.5 µM | 98% | 70.2% | -5.86 kcal/mol | -1.15 kcal/mol | -7 kcal/mol | – | – | – | – | > 500 µM | 94% | 2
4 | CCC#CCN(CC[C@H](N)C(=O)O)C[C@H]1O[C@@H](n2cnc3c(N)ncnc32)[C@H](O)[C@@H]1O | – | 32% | – | – | – | 95.3% | 22.7% | – | – | – | – | – | – | – | – | – | –
5 | C#CC(C)N(CC[C@H](N)C(=O)O)C[C@H]1O[C@@H](n2cnc3c(N)ncnc32)[C@H](O)[C@@H]1O (some centres undefined) | – | 71% | – | – | – | 84.2% | – | – | – | – | – | – | – | 0.6% | > 500 µM | – | –
6 | CCCN(CC[C@H](N)C(=O)O)C[C@H]1O[C@@H](n2cnc3c(N)ncnc32)[C@H](O)[C@@H]1O | – | – | – | – | – | – | – | – | – | – | – | – | – | – | > 500 µM | – | –
7 | CC#CCN(CC[C@H](N)C(=O)O)C[C@H]1O[C@@H](n2cnc3c(N)ncnc32)[C@H](O)[C@@H]1O | – | 37.6% | – | – | – | 93.9% | 12.9% | – | – | – | – | – | – | – | – | – | –
8 | C#CCN(CC[C@H](N)C(=O)O)C[C@H]1O[C@@H](n2cnc3c(N)ncnc32)[C@H](O)[C@@H]1O | 77.1 µM | 22.8% | 72.2% | – | 11.4 µM | 97.6% | 25.9% | -9.03 kcal/mol | 2.29 kcal/mol | -6.74 kcal/mol | – | – | – | – | – | – | 7
